From US10357431B2, “Process for the preparation of a pharmaceutical composition comprising a low soluble pharmaceutically active ingredient” (Lek Pharmaceuticals d.d., priority 2010, dated 2019)
Like-named read-outs stand apart in the source and are kept apart here.

How the values were obtained:
[1] = cited from earlier work
[2] = Particle size distribution of ezetimibe (laser diffraction, e.g. Malvern); assay type: physicochemical
From the text: In a particularly exemplified embodiment according to the present invention, the particle size distribution d(0.5) that is present after step (b) and prior to step (c), after step (c) and prior to step (d), and/or after step (d), corresponds essentially to or is smaller than the primary particle size distribution d(0.5) of the API that is used for providing the suspension of step (a). This (further) contributes to a further improved pharmaceutical composition or dosage form, respectively, as e.g. the dissolution profile and controllability are further enhanced. In general, the particle size distribution of a powder, or granular material, or particles e.g. dispersed in fluid, is a list of values or a mathematical function that defines the relative amounts of particles present, sorted according to size. The nomenclature describing the particle size distribution is herein referred to as “d(0.5)”. For example, a d(0.5) of 5 μm means that 50% (by volume) of the particles have a size less than or equal to 5 μm, as tested by any conventional method such as laser diffraction method (e.g. laser diffraction Malvern). When measuring the particle size distribution by laser diffraction Malvern, an appropriate amount of sample (usually a few drops of suspension) is put into a gently mixing chamber filled with water. From this chamber, the sample continuously flows through a measuring chamber and the particle size distribution is determined by laser diffraction. Within the meaning of the present invention, the term “particle size distribution d(0.5) corresponds essentially to or is smaller than” denotes that (i) the particle size distribution d(0.5) of the primary particles when measured after deagglomeration, i.e. after the high energy input treatment has been applied to the suspension containing the API particles, essentially corresponds to the particle size distribution d(0.5) of the primary particles that were used for providing the suspension of step (a); or (ii), alternatively, it denotes that the particle size distribution d(0.5) when measured after deagglomeration is smaller than the particle size distribution d(0.5) of the primary particles that were used for providing the suspension of step (a).
The particle size distribution d(0.5) of the primary API particles used for providing the suspension of step (a) in (A), (B) and (C) can be assessed by any method that is known to a person skilled in the art, such as by using laser diffraction method (e.g. Malvern Mastersizer, see above). As described elsewhere herein, said primary API particles may be present deagglomerated, however said particles may also be present in an agglomerated state. In the latter case, it is also possible to determine the particle size distribution d(0.5) by laser diffraction. If appropriate, it is preferred that the method for carrying out the first measurement corresponds to the method used for carrying out the second measurement.
The method according to the present invention is particularly useful for processing API particles having a particle size distribution d(0.5) that is relatively small, e.g. a particle size distribution d(0.5) where agglomeration is generated (critical particle size/particle size distribution). The critical particle size/particle size distribution for a selected API is known to a person skilled in the art. Further, said size/size distribution can be determined by any suitable method that is known to a person skilled in the art, such as by using SEM or laser diffraction. Usually SEM or more preferably disintegrated tablet suspension is recorded under a visual microscope and is processed with particle recognition software to obtain an estimation of particle size distribution. On SEM pictures, eventually occurring agglomerates are also visible. When using laser diffraction, a suspension of the API is transferred to the dispersing chamber containing water. […]

[3] = Example 3, Table 1, particle size after deagglomeration (suspension passed through ball mill)
[4] = Example 3, Table 1, starting particle size
[5] = Example 4, Table 2, particle size after deagglomeration (high energy rotor-stator mixer)
[6] = Example 4, Table 2, starting particle size
[7] = Example 6, Table 3, particle size after milling (rotor-stator mixer, then ball mill)
[8] = Example 6, Table 3, starting particle size
[9] = Example 7, Table 4, particle size after milling (rotor-stator mixer, then ball mill)
[10] = Example 7, Table 4, starting particle size

SMILES: O=C1[C@H](CC[C@H](O)c2ccc(F)cc2)[C@@H](c2ccc(O)cc2)N1c1ccc(F)cc1 [ezetimibe]
- solubility ([1]; in ethanol, methanol, and acetone): freely to very soluble
- solubility ([1]; in water): particularly poorly soluble
- size below which 50% of micronized ezetimibe particles were ([2]; Comparative Example 5, micronized starting ezetimibe): 3.9 micrometers
- D(0.1) [2, 3]: 0.84 μm
- D(0.5) [2, 3]: 2.98 μm
- D(0.9) [2, 3]: 6.28 μm
- D(0.1) [2, 4]: 0.30 μm
- D(0.5) [2, 4]: 2.97 μm
- D(0.9) [2, 4]: 6.87 μm
- change of particle size distribution d(0.5) ([2]; Example 3, suspension passed through a ball mill): remained essentially unchanged
- D(0.1) [2, 5]: 0.83 μm
- D(0.5) [2, 5]: 2.54 μm
- D(0.9) [2, 5]: 5.03 μm
- D(0.1) [2, 6]: 0.30 μm
- D(0.5) [2, 6]: 2.97 μm
- D(0.9) [2, 6]: 6.87 μm
- change of particle size distribution d(0.5) ([2]; Example 4, suspension mixed with high energy rotor-stator mixer): remained unchanged
- D(0.1) [2, 7]: 0.24 μm
- D(0.5) [2, 7]: 1.11 μm
- D(0.9) [2, 7]: 4.35 μm
- D(0.1) [2, 8]: 0.82 μm
- D(0.5) [2, 8]: 3.29 μm
- D(0.9) [2, 8]: 6.49 μm
- D(0.1) [2, 9]: 0.63 μm
- D(0.5) [2, 9]: 1.99 μm
- D(0.9) [2, 9]: 5.49 μm
- D(0.1) [2, 10]: 0.83 μm
- D(0.5) [2, 10]: 2.76 μm
- D(0.9) [2, 10]: 5.19 μm
